Assay results: US10544143B2, “4-azaindole compounds” (BRISTOL-MYERS SQUIBB COMPANY, priority 2017, dated 2020)

How the values were obtained:
human TLR7 = human TLR7 (Homo sapiens (Human), UniProt Q9NYK1); test: TLR7 inhibition reporter assay (HEK-Blue SEAP); format: cell-based; details: HEK-Blue cells overexpressing human TLR7, SEAP reporter, gardiquimod 7.5 μM
human TLR8 = human TLR8 (Homo sapiens (Human), UniProt Q9NR97); test: TLR8 inhibition reporter assay (HEK-Blue SEAP); details: read-out: TLR8 IC50; HEK-Blue cells overexpressing human TLR8, SEAP reporter, R848 15.9 μM;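 further: SEAP driven by IFN-β minimal promoter carrying NF-κB and AP-1 sites, compounds dosed 0.05 nM to 50 µM for 22 h, inhibition scaled between agonist-plus-DMSO and reference-inhibitor wells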
Sequence of human TLR8 (Q9NR97 27-1041): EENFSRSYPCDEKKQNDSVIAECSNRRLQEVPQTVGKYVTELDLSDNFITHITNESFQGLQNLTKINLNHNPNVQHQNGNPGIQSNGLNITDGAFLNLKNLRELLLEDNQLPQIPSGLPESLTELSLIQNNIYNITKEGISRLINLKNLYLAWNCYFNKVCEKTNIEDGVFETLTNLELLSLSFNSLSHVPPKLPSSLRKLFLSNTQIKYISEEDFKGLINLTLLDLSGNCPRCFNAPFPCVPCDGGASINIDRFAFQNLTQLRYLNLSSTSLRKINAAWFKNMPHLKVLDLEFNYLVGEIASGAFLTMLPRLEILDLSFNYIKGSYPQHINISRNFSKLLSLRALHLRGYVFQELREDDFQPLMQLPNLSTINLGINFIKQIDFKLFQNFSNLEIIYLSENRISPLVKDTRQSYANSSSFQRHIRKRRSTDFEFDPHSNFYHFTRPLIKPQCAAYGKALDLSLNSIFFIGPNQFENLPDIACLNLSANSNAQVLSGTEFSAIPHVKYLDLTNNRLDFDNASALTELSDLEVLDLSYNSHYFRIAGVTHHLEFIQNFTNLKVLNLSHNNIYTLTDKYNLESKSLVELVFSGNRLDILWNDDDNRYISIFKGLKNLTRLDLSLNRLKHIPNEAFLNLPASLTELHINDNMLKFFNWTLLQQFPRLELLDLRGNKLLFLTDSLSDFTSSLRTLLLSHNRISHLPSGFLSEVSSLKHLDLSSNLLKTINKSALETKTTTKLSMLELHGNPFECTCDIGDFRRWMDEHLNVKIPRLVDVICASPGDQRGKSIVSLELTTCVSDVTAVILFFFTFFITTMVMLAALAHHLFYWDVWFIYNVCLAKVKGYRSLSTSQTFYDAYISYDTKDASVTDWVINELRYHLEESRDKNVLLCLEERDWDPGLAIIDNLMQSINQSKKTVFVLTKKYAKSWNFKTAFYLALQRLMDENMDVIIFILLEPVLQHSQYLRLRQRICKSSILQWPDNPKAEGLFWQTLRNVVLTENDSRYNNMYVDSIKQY

human TLR9 = human TLR9 (Homo sapiens (Human), UniProt Q9NR96); test: TLR9 inhibition reporter assay (HEK-Blue SEAP); details: read-out: TLR9 IC50; HEK-Blue cells overexpressing human TLR9, SEAP reporter, ODN2006 5 nM;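 further: SEAP driven by an IFN-β minimal promoter with NF-κB and AP-1 sites, read after 22 h, compounds dosed 0.05 nM–50 µM, inhibition scaled between agonist plus DMSO and reference-inhibitor wells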
Sequence of human TLR9 (Q9NR96 26-1032): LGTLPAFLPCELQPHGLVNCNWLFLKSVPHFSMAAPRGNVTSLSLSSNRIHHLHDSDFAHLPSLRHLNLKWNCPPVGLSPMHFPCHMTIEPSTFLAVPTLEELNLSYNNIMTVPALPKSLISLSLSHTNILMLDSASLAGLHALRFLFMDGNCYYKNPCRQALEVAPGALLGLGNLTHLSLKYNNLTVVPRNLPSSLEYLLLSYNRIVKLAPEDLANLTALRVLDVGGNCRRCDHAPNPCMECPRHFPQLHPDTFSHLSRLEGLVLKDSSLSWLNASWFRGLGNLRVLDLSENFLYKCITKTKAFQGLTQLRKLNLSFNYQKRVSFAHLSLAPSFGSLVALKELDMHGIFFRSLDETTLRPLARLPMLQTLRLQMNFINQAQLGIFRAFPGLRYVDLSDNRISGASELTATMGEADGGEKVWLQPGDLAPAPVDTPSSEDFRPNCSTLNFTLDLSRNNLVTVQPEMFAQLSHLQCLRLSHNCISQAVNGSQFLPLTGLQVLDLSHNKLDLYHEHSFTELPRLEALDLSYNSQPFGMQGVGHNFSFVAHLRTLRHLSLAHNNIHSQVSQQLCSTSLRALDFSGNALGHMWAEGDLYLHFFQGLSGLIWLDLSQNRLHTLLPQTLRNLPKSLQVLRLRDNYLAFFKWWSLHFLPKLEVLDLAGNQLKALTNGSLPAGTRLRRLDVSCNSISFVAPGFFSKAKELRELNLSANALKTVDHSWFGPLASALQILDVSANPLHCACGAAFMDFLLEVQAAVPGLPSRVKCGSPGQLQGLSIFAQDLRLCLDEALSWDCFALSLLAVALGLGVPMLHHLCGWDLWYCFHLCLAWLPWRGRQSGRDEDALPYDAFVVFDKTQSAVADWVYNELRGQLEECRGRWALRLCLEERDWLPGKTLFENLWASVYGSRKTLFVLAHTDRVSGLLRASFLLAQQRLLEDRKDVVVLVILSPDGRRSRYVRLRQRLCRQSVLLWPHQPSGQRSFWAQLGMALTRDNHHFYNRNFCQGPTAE

Sequence of human TLR7 (Q9NYK1 27-1049): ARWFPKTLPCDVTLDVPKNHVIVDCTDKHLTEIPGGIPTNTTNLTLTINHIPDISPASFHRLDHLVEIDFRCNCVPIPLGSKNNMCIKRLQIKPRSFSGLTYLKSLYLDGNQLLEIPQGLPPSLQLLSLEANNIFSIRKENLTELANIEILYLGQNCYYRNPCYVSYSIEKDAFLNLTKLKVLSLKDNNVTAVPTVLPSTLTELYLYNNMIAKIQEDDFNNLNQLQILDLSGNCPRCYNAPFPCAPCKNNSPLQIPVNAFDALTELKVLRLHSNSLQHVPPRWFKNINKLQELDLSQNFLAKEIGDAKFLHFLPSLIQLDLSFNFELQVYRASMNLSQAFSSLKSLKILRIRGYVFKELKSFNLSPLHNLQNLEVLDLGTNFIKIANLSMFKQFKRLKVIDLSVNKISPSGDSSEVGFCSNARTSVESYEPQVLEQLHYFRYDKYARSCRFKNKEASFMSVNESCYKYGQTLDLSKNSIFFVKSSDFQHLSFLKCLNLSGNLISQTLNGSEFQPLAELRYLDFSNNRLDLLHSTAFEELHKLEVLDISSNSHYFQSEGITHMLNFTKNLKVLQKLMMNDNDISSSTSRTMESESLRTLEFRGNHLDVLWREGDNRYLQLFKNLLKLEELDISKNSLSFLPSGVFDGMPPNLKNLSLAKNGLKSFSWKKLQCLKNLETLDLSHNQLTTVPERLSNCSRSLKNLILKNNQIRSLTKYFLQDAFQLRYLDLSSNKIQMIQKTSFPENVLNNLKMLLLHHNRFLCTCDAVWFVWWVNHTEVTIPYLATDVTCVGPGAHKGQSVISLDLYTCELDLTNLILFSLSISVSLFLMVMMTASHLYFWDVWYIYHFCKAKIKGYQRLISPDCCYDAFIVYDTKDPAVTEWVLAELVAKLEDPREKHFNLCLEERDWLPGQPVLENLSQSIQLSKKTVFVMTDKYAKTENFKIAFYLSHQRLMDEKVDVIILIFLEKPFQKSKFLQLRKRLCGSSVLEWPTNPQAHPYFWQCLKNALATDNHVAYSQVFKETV

IC50 (human TLR7) [nM]	IC50 (human TLR8) [nM]	IC50 (human TLR9) [nM]	Structure (SMILES)
5.5	13	13200	Cc1c(-c2[nH]c3ccc(C4CN(CCS(C)(=O)=O)C4)nc3c2C(C)C)cn2ncnc2c1C [Example 653, 6-(3-isopropyl-5-(1-(2-(methylsulfonyl)ethyl)azetidin-3-yl)-1H-pyrrolo[3,2-b]pyridin-2-yl)-7,8-dimethyl-[1,2,4]triazolo[1,5-a]pyridine]
6.4	9.6	4920	Cc1c(-c2[nH]c3ccc(C4CN(CC(C)(C)O)C4)nc3c2C(C)C)cn2ncnc2c1C [Example 654]
1.4	11	2070	COc1cc(-c2[nH]c3ccc(C4CN(C(C)C)C4)nc3c2C(C)C)cn2ncnc12 [Example 655]
1.4	4.7	1850	Cc1c(-c2[nH]c3ccc(C4CN(C(C)C)C4)nc3c2C(C)C)cn2ncnc2c1C [Example 656]
2.1	10	842	COc1cc(-c2[nH]c3ccc(C4CN(CC(C)(C)O)C4)nc3c2C(C)C)cn2ncnc12 [Example 657]
3.8	8.2	13600	Cc1c(-c2[nH]c3ccc(C4CN(C(C)C)CCO4)nc3c2C(C)C)cn2ncnc2c1C (stereo not drawn) [Example 658]
12	24	8540	COc1cc(-c2[nH]c3ccc(C4CN(C5CCOCC5)CCO4)nc3c2C(C)C)cn2ncnc12 (stereo not drawn) [Example 659]
3.3	15	14400	COc1cc(-c2[nH]c3ccc(C4CN(C(C)C)CCO4)nc3c2C(C)C)cn2ncnc12 (stereo not drawn) [Example 660, 4-isopropyl-2-(3-isopropyl-2-(8-methoxy-[1,2,4]triazolo[1,5-a]pyridin-6-yl)-1H-pyrrolo[3,2-b]pyridin-5-yl)morpholine]
2.3	5.5	13900	COc1cc(-c2[nH]c3ccc(C4CN(C)CCO4)nc3c2C(C)C)cn2ncnc12 (stereo not drawn) [Example 661]
1.8	1	9030	Cc1c(-c2[nH]c3ccc(C4CNCCO4)nc3c2C(C)C)cn2ncnc2c1C (stereo not drawn) [Example 662]
3.5	9.9	21100	Cc1c(-c2[nH]c3ccc(C4CN(C(=O)CN(C)C)CCO4)nc3c2C(C)C)cn2ncnc2c1C (stereo not drawn) [Example 663]
22	14	38500	Cc1c(-c2[nH]c3ccc(C4CN(C5CCOCC5)CCO4)nc3c2C(C)C)cn2ncnc2c1C (stereo not drawn) [Example 664]
34	17	> 50000	Cc1cc(-c2[nH]c3ccc(C4CN(C)CCO4)nc3c2C(C)C)cn(C)c1=O (stereo not drawn) [Example 665]
0.73	1.6	6560	COc1cc(-c2[nH]c3ccc(C4CNCCO4)nc3c2C(C)C)cn2ncnc12 (stereo not drawn) [Example 666]
145	711	> 50000	Cc1cc(-c2[nH]c3ccc(C4CN(C5COC5)CCO4)nc3c2C(C)C)cn(C)c1=O (stereo not drawn) [Example 667]
1.7	22	17500	COc1cc(-c2[nH]c3ccc(C4CN(C(=O)CN(C)C)CCO4)nc3c2C(C)C)cn2ncnc12 (stereo not drawn) [Example 668]
7.4	5.6	31600	Cc1cc(-c2[nH]c3ccc(C4CNCCO4)nc3c2C(C)C)cn(C)c1=O (stereo not drawn) [Example 669]
56	58	> 50000	Cc1cc(-c2[nH]c3ccc(C4CN(CC#N)CCO4)nc3c2C(C)C)cn(C)c1=O (stereo not drawn) [Example 670]
1.4	2.1	4480	COc1cc(-c2[nH]c3ccc(C4CNCCO4)nc3c2C(C)C)cn2ncnc12 (stereo not drawn) [Example 671, 2-(3-isopropyl-2-(8-methoxy-[1,2,4]triazolo[1,5-a]pyridin-6-yl)-1H-pyrrolo[3,2-b]pyridin-5-yl)morpholine]
4.7	90	6240	COc1cc(-c2[nH]c3ccc(C4CN(C(=O)CCN(C)C)CCO4)nc3c2C(C)C)cn2ncnc12 (stereo not drawn) [Example 672]
5.2	6.9	14400	Cc1c(-c2[nH]c3ccc(C4CN(C)CCO4)nc3c2C(C)C)cn2ncnc2c1C (stereo not drawn) [Example 673]
32	48	> 50000	Cc1c(-c2[nH]c3ccc(C4CN(CCS(C)(=O)=O)CCO4)nc3c2C(C)C)cn2ncnc2c1C (stereo not drawn) [Example 674]
9.7	4.6	14500	Cc1cc(-c2[nH]c3ccc(C4CNCCO4)nc3c2C(C)C)cn(C)c1=O (stereo not drawn) [Example 675]
1	2.5	5720	COc1cc(-c2[nH]c3ccc(C4CNCCO4)nc3c2C(C)C)cn2ncnc12 (stereo not drawn) [Example 676]
17	53	> 50000	Cc1cc(-c2[nH]c3ccc(C4CN(C(=O)CN(C)C)CCO4)nc3c2C(C)C)cn(C)c1=O (stereo not drawn) [Example 677]

IC50 (human TLR7) [nM]	IC50 (human TLR8) [nM]	IC50 (human TLR9) [nM]	Structure (SMILES)
36	29	> 50000	Cc1cc(-c2[nH]c3ccc(C4CN(C(C)C)CCO4)nc3c2C(C)C)cn(C)c1=O (stereo not drawn) [Example 678]
16	5.8	20700	Cc1cc(-c2[nH]c3ccc(C4CNCCO4)nc3c2C(C)C)cn(C)c1=O (stereo not drawn) [Example 679]
12	5.2	1060	Cc1c(-c2[nH]c3ccc(C4CNCCN4)nc3c2C(C)C)cn2ncnc2c1C (stereo not drawn) [Example 680, 6-(3-isopropyl-5-(piperazin-2-yl)-1H-pyrrolo[3,2-b]pyridin-2-yl)-7,8-dimethyl-[1,2,4]triazolo[1,5-a]pyridine]
104	199	4240	Cc1cc(-c2[nH]c3ccc(CCN4CCCCC4)nc3c2C(C)C)cn2ncnc12 [Example 681]
16	24	1050	COc1cc(-c2[nH]c3ccc(CCN4CCCCC4)nc3c2C(C)C)cn2ncnc12 [Example 682]
12	13	322	CC(C)c1c(-c2cn(C)c3ncccc23)[nH]c2ccc(CCC3CN(CC(=O)N(C)C)C3)nc12 [Example 683]
14	13	365	CC(C)c1c(-c2cn(C)c3ncccc23)[nH]c2ccc(CCC3CN(CCS(C)(=O)=O)C3)nc12 [Example 684]
32	39	1580	Cc1c(-c2[nH]c3ccc(CCC4CN(C(=O)CN(C)C)C4)nc3c2C(C)C)cn2ncnc2c1C [Example 685]
> 3120	> 3120	> 50000	Cc1c(-c2[nH]c3ccc(CCC4CN(C5COC5)C4)nc3c2C(C)C)cn2ncnc2c1C [Example 686]
39	16	5770	Cc1c(-c2[nH]c3ccc(CCC4CN(C5COC5)C4)nc3c2C(C)C)cn2ncnc2c1C [Example 687]
11	42	433	COc1cc(-c2[nH]c3ccc(CCC4CN(CC(=O)N(C)C)C4)nc3c2C(C)C)cn2ncnc12 [Example 689]
15	31	288	CC(C)c1c(-c2cn(C)c3ncccc23)[nH]c2ccc(CCC3CNC3)nc12 [Example 690]
11	9.2	315	CC(C)c1c(-c2cn(C)c3ncccc23)[nH]c2ccc(CCC3CN(CC4(C)COC4)C3)nc12 [Example 691]
43	58	1530	Cc1c(-c2[nH]c3ccc(CCC4CNC4)nc3c2C(C)C)cn2ncnc2c1C [Example 692]
2310	2850	14600	CC(C)c1c(-c2cn(C)c3ncccc23)[nH]c2ccc(CCC3CN(C4COC4)C3)nc12 [Example 694]
42	20	3950	Cc1c(-c2[nH]c3ccc(CCC4CN(CCS(C)(=O)=O)C4)nc3c2C(C)C)cn2ncnc2c1C [Example 695]
75	36	1310	Cc1c(-c2[nH]c3ccc(CCC4CN(CC(=O)N(C)C)C4)nc3c2C(C)C)cn2ncnc2c1C [Example 696]
20	111	919	COc1cc(-c2[nH]c3ccc(CCC4CNC4)nc3c2C(C)C)cn2ncnc12 [Example 697]
12	28	1000	COc1cc(-c2[nH]c3ccc(CCC4CN(CCS(C)(=O)=O)C4)nc3c2C(C)C)cn2ncnc12 [Example 698]
12	46	430	COc1cc(-c2[nH]c3ccc(CCC4CN(C(=O)CN(C)C)C4)nc3c2C(C)C)cn2ncnc12 [Example 699]
26	43	2330	COc1cc(-c2[nH]c3ccc(CCC4CN(C5COC5)C4)nc3c2C(C)C)cn2ncnc12 [Example 700]
49	15	1750	Cc1c(-c2[nH]c3ccc(CCC4CN(CC(C)(C)O)C4)nc3c2C(C)C)cn2ncnc2c1C [Example 701]
41	14	2230	Cc1c(-c2[nH]c3ccc(CCC4CN(CC5(C)COC5)C4)nc3c2C(C)C)cn2ncnc2c1C [Example 702]
8.9	16	326	CC(C)c1c(-c2cn(C)c3ncccc23)[nH]c2ccc(CCC3CN(C(=O)CN(C)C)C3)nc12 [Example 703]

Structure (SMILES)	IC50 (human TLR7) [nM]	IC50 (human TLR8) [nM]	IC50 (human TLR9) [nM]
COc1cc(-c2[nH]c3ccc(CCC4CN(CC(C)(C)O)C4)nc3c2C(C)C)cn2ncnc12 [Example 693]	6.5	15	437
